Test results as given in patent publication US10227323B2, “Glucosylceramide synthase inhibitors for the treatment of diseases” (BIOMARIN PHARMACEUTICAL INC., priority 2013, dated 2019).

These compounds were tested against T1, GCS (Canis lupus familiaris, UniProt A0A8I3MXG6) (assay: Assay 1: GCS Enzymatic Assay (MDCK cell lysate, C6-NBD-Ceramide, LC/MS)). Conditions: Table 1; MDCK cell lysate; read-out: IC50 (nM) generated from Assay 1.
T1 sequence (A0A8I3MXG6 1-394): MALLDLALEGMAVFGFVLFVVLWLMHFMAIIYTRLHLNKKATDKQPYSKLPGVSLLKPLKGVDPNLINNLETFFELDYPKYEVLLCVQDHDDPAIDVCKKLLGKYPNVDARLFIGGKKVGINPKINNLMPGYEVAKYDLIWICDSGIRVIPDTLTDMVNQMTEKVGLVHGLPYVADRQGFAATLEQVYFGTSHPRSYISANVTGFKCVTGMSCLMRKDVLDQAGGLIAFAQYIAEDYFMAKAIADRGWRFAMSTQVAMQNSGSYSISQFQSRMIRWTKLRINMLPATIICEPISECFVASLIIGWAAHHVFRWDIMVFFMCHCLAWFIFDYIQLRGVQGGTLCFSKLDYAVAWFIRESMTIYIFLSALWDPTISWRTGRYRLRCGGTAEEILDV
Assay type: biochemical, canine
Procedure: This assay was modified based on the study by Larsen et al. (J. Lipid Res. 2011, 53, 282). Madin-Darby canine kidney (MDCK) cell lysate was prepared using M-PER Mammalian Protein Extraction Reagent (Thermal Scientific) in the presence of a protease inhibitor cocktail (Roche). Protein concentration was determined using BCA assay kit (Pierce). Sixty micrograms of MDCK cell lysate was incubated with various concentrations of a compound described herein from 0.001 μM-10 μM, respectively, in 100 mM Tris buffer (pH 7.5) containing 10 mM MgCl2, 1 mM dithiothreitol, 1 mM EGTA, 2 mM NAD, 100 μM UDP-glucose, 10 μM C6-NBD-Ceramide (Matreya LLC, Pleasant Gap, Pa.), 35 μM dioleoylphosphatidylcholine and 5 μM sulfatide (Sigma) in a final reaction volume of 100 μL at 37° C. for 1 hour. 0.1% DMSO was used as mock treatment or control. The reaction was terminated by adding 100 μL acetonitrile solution and subjected to LC/MS analysis.
The quantitative analysis of NBD-Ceramide and glucosylceramide was performed on a Shimadzu ultra-fast liquid chromatography (Shimadzu, Japan) coupled with API 4000 triple quadrupole mass spectrometer (Applied Biosystems, Concord, Ontario, Canada). Sample separation was conducted on a Waters Xbridge™ BEH130 C18, 100 mm×4.6 mm i.d, 3.5 μm (Milford, Mass., USA). The mobile phase consisted of water and acetonitrile supplemented with 0.1% formic acid (v/v). The flow rate was 1.0 mL/min. The initial mobile phase was 20% acetonitrile and was ramped in a linear fashion to 50% acetonitrile in 0.4 min. From 0.4 to 1.5 min, the gradient was ramped to 98% acetonitrile, and then was held at […] until 8.0 min. Acetonitrile was reset to 20% in 1.5 min, and maintained until 10.0 min. The total run time was 10.0 min. The MS/MS detection was performed in ESI positive mode. The mass transition of NBD-Ceramide was m/z 576.36→558.40 under the collision energy of 15 V, and the mass transition of glucosylceramide was m/z 738.35→558.40 under 21V collision energy. The cell lysate was diluted with equal volume of acetonitrile. Aliquots of 50 μL diluted samples were added to 1.5 mL tubes, and 100 μL of acetonitrile containing internal standard (100 ng/mL tolbutamide) were added for protein precipitation. The mixture were vortexed and then centrifuged at 13000 rpm for 10 min. 70 μL of supernatant were mixed with 140 μL of H2O and the final solution were injected for LC/MS/MS analysis and IC50's and/or percent inhibitions calculated.

IC50 [nM] | Structure (SMILES)
< 50 | O=C(N[C@H](CN1CCCC1)[C@H](O)c1ccc2c(c1)OCCO2)C(F)(F)c1cc2cc(Br)ccc2o1 [Compound 31, 2-(5-bromobenzofuran-2-yl)-N-((1R,2R)-1-(2,3-dihydrobenzo[b][1,4]dioxin-6-yl)-1-hydroxy-3-(pyrrolidin-1-yl)propan-2-yl)-2,2-difluoroacetamide]
< 50 | O=C(N[C@H](CN1CCC1)[C@H](O)c1ccc2c(c1)OCCO2)C(F)(F)c1cc2cc(Cl)ccc2o1 [Compound 32D, N-((1R,2R)-3-(azetidin-1-yl)-1-(2,3-dihydrobenzo[b][1,4]dioxin-6-yl)-1-hydroxypropan-2-yl)-2-(5-chlorobenzofuran-2-yl)-2,2-difluoroacetamide]
< 50 | C[C@@H]1CCCN1C[C@@H](NC(=O)C(F)(F)c1cc2cc(Cl)ccc2o1)[C@H](O)c1ccc2c(c1)OCCO2 [Compound 39, 2-(5-chlorobenzofuran-2-yl)-N-((1R,2R)-1-(2,3-dihydrobenzo[b][1,4]dioxin-6-yl)-1-hydroxy-3-((1R)-2-methylpyrrolidin-1-yl)propan-2-yl)-2,2-difluoroacetamide]
< 50 | C[C@H]1CCCN1C[C@@H](NC(=O)C(F)(F)c1cc2cc(Cl)ccc2o1)[C@H](O)c1ccc2c(c1)OCCO2 [Compound 40, 2-(5-chlorobenzofuran-2-yl)-N-((1R,2R)-1-(2,3-dihydrobenzo[b][1,4]dioxin-6-yl)-1-hydroxy-3-((S)-2-methylpyrrolidin-1-yl)propan-2-yl)-2,2-difluoroacetamide]
< 50 | O=C(N[C@H](CN1CCCC1)[C@H](O)c1ccc(OC2CC2)c(Cl)c1)C(F)(F)c1cc2cc(Cl)ccc2o1 [Compound 44, N-((1R,2R)-1-(3-chloro-4-cyclopropoxyphenyl)-1-hydroxy-3-(pyrrolidin-1-yl)propan-2-yl)-2-(5-chlorobenzofuran-2-yl)-2,2-difluoroacetamide]
50 to 5000 | O=C(N[C@H](CN1CC[C@@H](F)C1)[C@H](O)c1ccc2c(c1)OCCO2)C(F)(F)c1cc2cc(Cl)ccc2o1 [Compound 46, 2-(5-chlorobenzofuran-2-yl)-N-((1R,2R)-1-(2,3-dihydrobenzo[b][1,4]dioxin-6-yl)-3-((1R)-3-fluoropyrrolidin-1-yl)-1-hydroxypropan-2-yl)-2,2-difluoroacetamide]

Same assay, conditions: Table 1; values marked *; MDCK cell lysate

Structure (SMILES) | % inhibition generated from Assay 1
O=C(N[C@H](CN1CCC1)[C@@H](O)c1ccc2c(c1)OCCO2)C(F)(F)c1cc2cc(Cl)ccc2o1 [Compound 32C, N-((1S,2R)-3-(azetidin-1-yl)-1-(2,3-dihydrobenzo[b][1,4]dioxin-6-yl)-1-hydroxypropan-2-yl)-2-(5-chlorobenzofuran-2-yl)-2,2-difluoroacetamide] | B* (the compound had a % inhibition of greater than or equal to about 3% but less than about 50%)
O=C(N[C@H](CN1CCCC1)[C@H](O)c1cc2c(cc1F)OCCO2)C(F)(F)c1cc2cc(Cl)ccc2o1 [Compound 33, 2-(5-chlorobenzofuran-2-yl)-2,2-difluoro-N-((1R,2R)-1-(7-fluoro-2,3-dihydrobenzo[b][1,4]dioxin-6-yl)-1-hydroxy-3-(pyrrolidin-1-yl)propan-2-yl)acetamide] | B* (the compound had a % inhibition of greater than or equal to about 3% but less than about 50%)
O=C(N[C@H](CN1CCCC1)[C@@H](O)c1cc2c(cc1F)OCCO2)C(F)(F)c1cc2cc(Cl)ccc2o1 [Compound 33A, 2-(5-chlorobenzofuran-2-yl)-2,2-difluoro-N-((1S,2R)-1-(7-fluoro-2,3-dihydrobenzo[b][1,4]dioxin-6-yl)-1-hydroxy-3-(pyrrolidin-1-yl)propan-2-yl)acetamide] | B* (the compound had a % inhibition of greater than or equal to about 3% but less than about 50%)
O=C(N[C@H](CN1CCCC1)[C@H](O)c1ccc2ncccc2c1)C(F)(F)c1cc2cc(Cl)ccc2o1 [Compound 34, 2-(5-chlorobenzofuran-2-yl)-2,2-difluoro-N-((1R,2R)-1-hydroxy-3-(pyrrolidin-1-yl)-1-(quinolin-6-yl)propan-2-yl)acetamide] | A* (the compound had a % inhibition of a percent inhibition of greater than or equal to about 50%)
O=C(N[C@H](CN1CCCC1)[C@@H](O)c1ccc2ncccc2c1)C(F)(F)c1cc2cc(Cl)ccc2o1 [Compound 34G, 2-(5-chlorobenzofuran-2-yl)-2,2-difluoro-N-((1S,2R)-1-hydroxy-3-(pyrrolidin-1-yl)-1-(quinolin-6-yl)propan-2-yl)acetamide] | B* (the compound had a % inhibition of greater than or equal to about 3% but less than about 50%)
CC1(C)CCN(C[C@@H](NC(=O)C(F)(F)c2cc3cc(Cl)ccc3o2)[C@@H](O)c2ccc3c(c2)OCCO3)C1 [Compound 36C, 2-(5-chlorobenzofuran-2-yl)-N-((1S,2R)-1-(2,3-dihydrobenzo[b][1,4]dioxin-6-yl)-3-(3,3-dimethylpyrrolidin-1-yl)-1-hydroxypropan-2-yl)-2,2-difluoroacetamide] | B* (the compound had a % inhibition of greater than or equal to about 3% but less than about 50%)
O=C(N[C@H](CN1CCCC1)[C@H](O)c1ccc(OC(F)(F)F)cc1)C(F)(F)c1cc2cc(Cl)ccc2o1 [Compound 37, 2-(5-chlorobenzofuran-2-yl)-2,2-difluoro-N-((1R,2R)-1-hydroxy-3-(pyrrolidin-1-yl)-1-(4-(trifluoromethoxy)phenyl)propan-2-yl)acetamide] | B* (the compound had a % inhibition of greater than or equal to about 3% but less than about 50%)
O=C(N[C@H](CN1CCCC1)[C@@H](O)c1ccc(OC(F)(F)F)cc1)C(F)(F)c1cc2cc(Cl)ccc2o1 [Compound 37G, 2-(5-chlorobenzofuran-2-yl)-2,2-difluoro-N-((1S,2R)-1-hydroxy-3-(pyrrolidin-1-yl)-1-(4-(trifluoromethoxy)phenyl)propan-2-yl)acetamide] | B* (the compound had a % inhibition of greater than or equal to about 3% but less than about 50%)
O=C(N[C@H](CN1CC[C@H](F)C1)[C@H](O)c1ccc2c(c1)OCCO2)C(F)(F)c1cc2cc(Cl)ccc2o1 [Compound 38, 2-(5-chlorobenzofuran-2-yl)-N-((1R,2R)-1-(2,3-dihydrobenzo[b][1,4]dioxin-6-yl)-3-((S)-3-fluoropyrrolidin-1-yl)-1-hydroxypropan-2-yl)-2,2-difluoroacetamide] | B* (the compound had a % inhibition of greater than or equal to about 3% but less than about 50%)
O=C(N[C@H](CN1CCC(F)(F)C1)[C@H](O)c1ccc2c(c1)OCCO2)C(F)(F)c1cc2cc(Cl)ccc2o1 [Compound 41, 2-(5-chlorobenzofuran-2-yl)-N-((1R,2R)-3-(3,3-difluoropyrrolidin-1-yl)-1-(2,3-dihydrobenzo[b][1,4]dioxin-6-yl)-1-hydroxypropan-2-yl)-2,2-difluoroacetamide] | B* (the compound had a % inhibition of greater than or equal to about 3% but less than about 50%)
O=C(N[C@H](CN1CCCC1)[C@@H](O)c1ccc(OC2CC2)c(Cl)c1)C(F)(F)c1cc2cc(Cl)ccc2o1 [Compound 44H, N-((1S,2R)-1-(3-chloro-4-cyclopropoxyphenyl)-1-hydroxy-3-(pyrrolidin-1-yl)propan-2-yl)-2-(5-chlorobenzofuran-2-yl)-2,2-difluoroacetamide] | B* (the compound had a % inhibition of greater than or equal to about 3% but less than about 50%)
O=C(N[C@H](CN1CC2(CCC2)C1)[C@H](O)c1ccc2c(c1)OCCO2)C(F)(F)c1cc2cc(Cl)ccc2o1 [Compound 48, 2-(5-chlorobenzofuran-2-yl)-N-((1R,2R)-1-(2,3-dihydrobenzo[b][1,4]dioxin-6-yl)-1-hydroxy-3-(2-azaspiro[3.3]heptan-2-yl)propan-2-yl)-2,2-difluoroacetamide] | B* (the compound had a % inhibition of greater than or equal to about 3% but less than about 50%)
